Measurements taken from ChEMBL document CHEMBL4602730, “In Vitro and in Vivo Evaluation of Membrane-Active Flavone Amphiphiles: Semisynthetic Kaempferol-Derived Antimicrobials against Drug-Resistant Gram-Positive Bacteria” (J Med Chem, 2020).
Converted amounts (≈) assume the structure as drawn.

Legend:
[1] = tested on: Staphylococcus aureus; experiment: Antibacterial activity against Staphylococcus aureus ATCC 29213 assessed as inhibition of bacterial growth incubated for 24 hrs by broth microdilution method; type: functional; conditions: ATCC 29213, 24 h
[2] = tested on: Staphylococcus aureus; experiment: Antibacterial activity against methicillin-resistant Staphylococcus aureus N315 assessed as inhibition of bacterial growth incubated for 24 hrs by broth microdilution method; type: functional; conditions: N315, 24 h
[3] = tested on: Staphylococcus aureus; experiment: Antibacterial activity against methicillin-resistant Staphylococcus aureus NCTC 10442 assessed as inhibition of bacterial growth incubated for 24 hrs by broth microdilution method; type: functional; conditions: NCTC 10442, 24 h
[4] = Induction of hemolysis in rabbit RBC incubated for 1 hr; type: cell-based, Oryctolagus cuniculus, Erythrocyte; conditions: rabbit red blood cells (erythrocytes)

Row | SMILES | MIC [1] | MIC [2] | MIC [3] | HC50 at 1 h [4]
1 | CC(C)=CCOc1ccc(-c2oc3cc(OCC=C(C)C)cc(O)c3c(=O)c2O)cc1 | > 118 µM | > 118 µM | > 118 µM | > 473 µM
2 | CCN(CC)CCCCCCOc1c(-c2ccc(OCC=C(C)C)cc2)oc2cc(OCC=C(C)C)cc(O)c2c1=O | 10.8 µM (≈ 6.24 µg/mL) | 10.8 µM (≈ 6.24 µg/mL) | 10.8 µM (≈ 6.24 µg/mL) | 83.8 µM
3 | CC(C)=CCOc1ccc(-c2oc3cc(OCC=C(C)C)cc(O)c3c(=O)c2OCC(=O)N[C@@H](CCCNC(=N)N)C(=O)NCCCN(C)C)cc1 | 8.7 µM (≈ 6.27 µg/mL) | 8.7 µM (≈ 6.27 µg/mL) | 8.7 µM (≈ 6.27 µg/mL) | 131 µM
4 | CCN(CC)CCCNC(=O)COc1c(-c2ccc(OCC=C(C)C)cc2)oc2cc(OCC=C(C)C)cc(O)c2c1=O | 10.5 µM (≈ 6.22 µg/mL) | 10.5 µM (≈ 6.22 µg/mL) | 21.1 µM (≈ 12.5 µg/mL) | 80.3 µM
5 | CCN(CC)CCCCCCCCCCOc1c(-c2ccc(OCC=C(C)C)cc2)oc2cc(OCC=C(C)C)cc(O)c2c1=O | > 78.9 µM | > 78.9 µM | > 78.9 µM | > 316 µM
6 | CCN(CC)CCCCOc1c(-c2ccc(OCC=C(C)C)cc2)oc2cc(OCC=C(C)C)cc(O)c2c1=O | 5.7 µM (≈ 3.13 µg/mL) | 5.7 µM (≈ 3.13 µg/mL) | 5.7 µM (≈ 3.13 µg/mL) | 32.2 µM
7 | CC(C)=CCOc1ccc(-c2oc3cc(OCC=C(C)C)cc(OCC(=O)NCCCN(C)C)c3c(=O)c2OCC(=O)NCCCN(C)C)cc1 | 35.4 µM (≈ 25 µg/mL) | 70.7 µM (≈ 50 µg/mL) | 70.7 µM (≈ 50 µg/mL) | > 283 µM
8 | CCCCCOc1ccc(-c2oc3cc(OCCCCC)cc(O)c3c(=O)c2O)cc1 | > 117 µM | > 117 µM | > 117 µM | > 469 µM
9 | CC(C)=CCOc1ccc(-c2oc3cc(OCC=C(C)C)cc(O)c3c(=O)c2OCCCN2CCN(C)CC2)cc1 | 22.2 µM (≈ 12.5 µg/mL) | 11.1 µM (≈ 6.25 µg/mL) | 22.2 µM (≈ 12.5 µg/mL) | 83.3 µM
10 | CCCCN(CCCC)CCCOc1c(-c2ccc(OCC=C(C)C)cc2)oc2cc(OCC=C(C)C)cc(O)c2c1=O | > 84.5 µM | > 84.5 µM | > 84.5 µM | > 338 µM
11 | CCCCCOc1ccc(-c2oc3cc(OCCCCC)cc(O)c3c(=O)c2OCCCN(CC)CC)cc1 | 11.6 µM (≈ 6.26 µg/mL) | 11.6 µM (≈ 6.26 µg/mL) | 23.2 µM (≈ 12.5 µg/mL) | 284 µM
12 | CCN(CC)CCCNC(=O)COc1c(-c2ccc(OCC=C(C)C)cc2)oc2cc(OCC=C(C)C)cc(OCC(=O)NCCCN(CC)CC)c2c1=O | > 65.5 µM | > 65.5 µM | > 65.5 µM | > 262 µM
13 | CCCCCCCCNCCCOc1c(-c2ccc(OCC=C(C)C)cc2)oc2cc(OCC=C(C)C)cc(O)c2c1=O | > 84.5 µM | 21.1 µM (≈ 12.5 µg/mL) | > 84.5 µM | > 338 µM
14 | CCCCCCCOc1ccc(-c2oc3cc(OCCCCCCC)cc(O)c3c(=O)c2OCCCN(CC)CC)cc1 | > 83.9 µM | > 83.9 µM | > 83.9 µM | > 336 µM
15 | CCCN(CCC)CCCOc1c(-c2ccc(OCC=C(C)C)cc2)oc2cc(OCC=C(C)C)cc(O)c2c1=O | > 88.7 µM | > 88.7 µM | > 88.7 µM | > 355 µM
16 | CCN(CC)CCCCCCCCOc1c(-c2ccc(OCC=C(C)C)cc2)oc2cc(OCC=C(C)C)cc(O)c2c1=O | 82.5 µM (≈ 50 µg/mL) | 20.6 µM (≈ 12.5 µg/mL) | 82.5 µM (≈ 50 µg/mL) | 29.4 µM
17 | CC(C)=CCOc1ccc(-c2oc3cc(OCC=C(C)C)cc(O)c3c(=O)c2OCCCN2CCCC2)cc1 | 23.4 µM (≈ 12.5 µg/mL) | 11.7 µM (≈ 6.24 µg/mL) | 23.4 µM (≈ 12.5 µg/mL) | > 375 µM
18 | CCCNCCCOc1c(-c2ccc(OCC=C(C)C)cc2)oc2cc(OCC=C(C)C)cc(O)c2c1=O | 24 µM (≈ 12.5 µg/mL) | 6 µM (≈ 3.13 µg/mL) | 12 µM (≈ 6.26 µg/mL) | 49.8 µM
19 | CCCOc1ccc(-c2oc3cc(OCCC)cc(O)c3c(=O)c2O)cc1 | > 135 µM | > 135 µM | > 135 µM | > 540 µM

Row | SMILES | MIC [1] | MIC [2] | MIC [3] | HC50 at 1 h [4]
20 | CCN(CC)CCCOc1c(-c2ccc(OCC=C(C)C)cc2)oc2cc(OCC=C(C)C)cc(O)c2c1=O | 5.8 µM (≈ 3.11 µg/mL) | 5.8 µM (≈ 3.11 µg/mL) | 5.8 µM (≈ 3.11 µg/mL) | 59.9 µM
21 | CC[N+](C)(CC)CCCOc1c(-c2ccc(OCC=C(C)C)cc2)oc2cc(OCC=C(C)C)cc(O)c2c1=O | 4.6 µM | 2.3 µM | 4.6 µM | 88.2 µM
22 | CCCOc1ccc(-c2oc3cc(OCCC)cc(O)c3c(=O)c2OCCCN(CC)CC)cc1 | 12.9 µM (≈ 6.24 µg/mL) | 12.9 µM (≈ 6.24 µg/mL) | 12.9 µM (≈ 6.24 µg/mL) | 121 µM
23 | CCN(CC)CCCCCOc1c(-c2ccc(OCC=C(C)C)cc2)oc2cc(OCC=C(C)C)cc(O)c2c1=O | 22.2 µM (≈ 12.5 µg/mL) | 22.2 µM (≈ 12.5 µg/mL) | 22.2 µM (≈ 12.5 µg/mL) | 99 µM
24 | COC(=O)[C@H](Cc1c[nH]cn1)NC(=O)COc1c(-c2ccc(OCC=C(C)C)cc2)oc2cc(OCC=C(C)C)cc(O)c2c1=O | > 79.2 µM | > 79.2 µM | > 79.2 µM | > 317 µM
25 | CC(C)=CCOc1ccc(-c2oc3cc(OCC=C(C)C)cc(O)c3c(=O)c2OCCCN2CCSCC2)cc1 | > 88.4 µM | > 88.4 µM | > 88.4 µM | > 354 µM
26 | CC(C)=CCOc1ccc(-c2oc3cc(OCC=C(C)C)cc(O)c3c(=O)c2OCCCN2CCOCC2)cc1 | > 91 µM | > 91 µM | > 91 µM | > 364 µM
27 | CCCCCCCOc1ccc(-c2oc3cc(OCCCCCCC)cc(O)c3c(=O)c2O)cc1 | > 104 µM | > 104 µM | > 104 µM | > 414 µM
28 | CCCCCNCCCOc1c(-c2ccc(OCC=C(C)C)cc2)oc2cc(OCC=C(C)C)cc(O)c2c1=O | 45.5 µM (≈ 25 µg/mL) | 11.4 µM (≈ 6.27 µg/mL) | 22.7 µM (≈ 12.5 µg/mL) | 69.7 µM
29 | CC(C)=CCOc1ccc(-c2oc3cc(OCC=C(C)C)cc(O)c3c(=O)c2OCCCN(C)C)cc1 | 12.3 µM (≈ 6.24 µg/mL) | 12.3 µM (≈ 6.24 µg/mL) | 12.3 µM (≈ 6.24 µg/mL) | 228 µM
30 | CCCC[N+](C)(CCCC)CCCOc1c(-c2ccc(OCC=C(C)C)cc2)oc2cc(OCC=C(C)C)cc(O)c2c1=O | 17.1 µM | 17.1 µM | 34.1 µM | 46.9 µM
31 | CCCCCCCCCOc1ccc(-c2oc3cc(OCCCCCCCCC)cc(O)c3c(=O)c2OCCCN(CC)CC)cc1 | > 76.7 µM | > 76.7 µM | > 76.7 µM | > 307 µM
32 | O=c1c(O)c(-c2ccc(O)cc2)oc2cc(O)cc(O)c12 [KAEMPFEROL] | > 175 µM | > 175 µM | > 175 µM | 
33 | CCCCCCCCCOc1ccc(-c2oc3cc(OCCCCCCCCC)cc(O)c3c(=O)c2O)cc1 | > 92.8 µM | > 92.8 µM | > 92.8 µM | > 371 µM
34 | CCN(CC)CCOc1c(-c2ccc(OCC=C(C)C)cc2)oc2cc(OCC=C(C)C)cc(O)c2c1=O | 95.8 µM (≈ 50 µg/mL) | 95.8 µM (≈ 50 µg/mL) | 95.8 µM (≈ 50 µg/mL) | > 383 µM
35 | COC(=O)[C@H](CCCNC(=N)N)NC(=O)[C@H](CCCNC(=N)N)NC(=O)COc1c(-c2ccc(OCC=C(C)C)cc2)oc2cc(OCC=C(C)C)cc(O)c2c1=O | 3.9 µM (≈ 3.15 µg/mL) | 3.9 µM (≈ 3.15 µg/mL) | 3.9 µM (≈ 3.15 µg/mL) | 82.5 µM
36 | CC(C)=CCOc1ccc(-c2oc3cc(OCC=C(C)C)cc(O)c3c(=O)c2OCCC[N+](C)(C)C)cc1 | 4.8 µM | 2.4 µM | 4.8 µM | 77.3 µM
37 | CC(C)=CCOc1ccc(-c2oc3cc(OCC=C(C)C)cc(O)c3c(=O)c2OCC(=O)NCCCN(C)C)cc1 | 11.1 µM (≈ 6.27 µg/mL) | 11.1 µM (≈ 6.27 µg/mL) | 22.1 µM (≈ 12.5 µg/mL) | 287 µM
